{
  "source": "ChEMBL document CHEMBL5543112",
  "about": "“Discovery of CBPD-268 as an Exceptionally Potent and Orally Efficacious CBP/p300 PROTAC Degrader Capable of Achieving Tumor Regression” (J Med Chem, 2024)",
  "key": {"CWR22R [1]": {"system": "CWR22R", "experiment": "Antiproliferative activity against human 22Rv1 cells assessed as cell growth inhibition incubated for 4 days by celtiter-glo luminescent assay", "conditions": "22Rv1, 96 h"}, "VCaP [2]": {"system": "VCaP", "experiment": "Antiproliferative activity against human VCaP cells assessed as cell growth inhibition incubated for 4 days by celtiter-glo luminescent assay", "conditions": "96 h"}, "[3]": {"experiment": "Chemical stability of the compound assessed as parent compound remaining measured at 7 hrs", "assay_type": "physicochemical", "conditions": "read-out: Stability"}, "[4]": {"experiment": "Half life in Sprague-Dawley rat at 1 mg/kg, iv measured upto 24 hrs by LC/MS-MS analysis", "assay_type": "ADME, organism-based", "conditions": "in vivo"}, "[5]": {"experiment": "Cmax in ICR mouse at 3 mg/kg, po measured upto 24 hrs by LC/MS-MS analysis", "assay_type": "ADME, organism-based", "conditions": "in vivo"}, "[6]": {"experiment": "AUC in Sprague-Dawley rat at 3 mg/kg, po measured upto 24 hrs by LC/MS-MS analysis", "assay_type": "ADME, organism-based", "conditions": "in vivo"}, "[7]": {"experiment": "Oral bioavailability in Sprague-Dawley rat at 3 mg/kg measured upto 24 hrs by LC/MS-MS analysis", "assay_type": "ADME, organism-based", "conditions": "in vivo"}, "[8]": {"experiment": "Plasma protein binding in monkey by LC-MS analysis", "assay_type": "ADME, cell-free, Macaca mulatta", "conditions": "rhesus monkey, read-out: PPB (converted)"}, "[9]": {"experiment": "Drug distribution in SCID mouse plasma at 0.3 mg/kg, po measured at 6 hrs by LC-MS/MS analysis", "assay_type": "ADME, organism-based"}, "[10]": {"experiment": "Drug distribution in SCID mouse plasma at 3 mg/kg, po measured at 1 hr by LC-MS/MS analysis", "assay_type": "ADME, organism-based"}, "[11]": {"experiment": "Drug distribution in SCID mouse tumor at 1 mg/kg, po measured at 1 hr by LC-MS/MS analysis", "assay_type": "ADME, organism-based, Neoplasm", "conditions": "read-out: Ct"}, "[12]": {"experiment": "Drug distribution in SCID mouse tumor at 3 mg/kg, po measured at 24 hrs by LC-MS/MS analysis", "assay_type": "ADME, organism-based, Neoplasm", "conditions": "read-out: Ct"}, "[13]": {"experiment": "Drug distribution in SCID mouse liver at 0.3 mg/kg, po measured at 24 hrs by LC-MS/MS analysis", "assay_type": "ADME, organism-based", "conditions": "read-out: Ct"}, "[14]": {"experiment": "Drug distribution in SCID mouse liver at 1 mg/kg, po measured at 1 hr by LC-MS/MS analysis", "assay_type": "ADME, organism-based", "conditions": "read-out: Ct"}, "[15]": {"experiment": "Drug distribution in SCID mouse liver at 3 mg/kg, po measured at 6 hrs by LC-MS/MS analysis", "assay_type": "ADME, organism-based", "conditions": "read-out: Ct"}, "[16]": {"experiment": "Drug distribution in SCID mouse spleen at 0.3 mg/kg, po measured at 1 hr by LC-MS/MS analysis", "assay_type": "ADME, organism-based", "conditions": "read-out: Ct"}, "[17]": {"experiment": "Drug distribution in SCID mouse spleen at 0.3 mg/kg, po measured at 6 hrs by LC-MS/MS analysis", "assay_type": "ADME, organism-based", "conditions": "read-out: Ct"}, "[18]": {"experiment": "Drug distribution in SCID mouse spleen at 1 mg/kg, po measured at 1 hr by LC-MS/MS analysis", "assay_type": "ADME, organism-based", "conditions": "read-out: Ct"}, "[19]": {"experiment": "Drug distribution in SCID mouse spleen at 3 mg/kg, po measured at 6 hrs by LC-MS/MS analysis", "assay_type": "ADME, organism-based", "conditions": "read-out: Ct"}, "[20]": {"experiment": "Drug concentration in SCID mouse tumor at 1 mg/kg, po measured at 1 hr by LC-MS/MS analysis", "assay_type": "ADME, organism-based, Neoplasm", "conditions": "read-out: Ct"}, "CWR22R [21]": {"system": "CWR22R", "experiment": "Antitumor activity against human 22Rv1 cells xenografted in SCID mouse assessed as reduction in BRD2 level in tumor at 1 to 3 mg/kg, po measured at 6 to 24 hrs by Western blotting analysis", "assay_type": "functional, organism-based", "conditions": "dose 1-3 mg/kg, time 6-24 hrs"}, "CWR22R [22]": {"system": "CWR22R", "experiment": "Antitumor activity against human 22Rv1 cells xenografted in SCID mouse assessed as reduction in BRD3 level in tumor at 1 to 3 mg/kg, po measured at 6 to 24 hrs by Western blotting analysis", "assay_type": "functional, organism-based", "conditions": "dose 1-3 mg/kg, time 6-24 hrs"}, "CWR22R [23]": {"system": "CWR22R", "experiment": "Antitumor activity against human 22Rv1 cells xenografted in SCID mouse assessed as reduction in BRD4 level in tumor at 1 to 3 mg/kg, po measured at 6 to 24 hrs by Western blotting analysis", "assay_type": "functional, organism-based", "conditions": "dose 1-3 mg/kg, time 6-24 hrs"}, "VCaP [24]": {"system": "VCaP", "experiment": "Antitumor activity against human VCaP cells xenografted in SCID mouse assessed as tumor growth inhibition at 1 mg/kg, po administered twice a week for 4 week", "assay_type": "functional", "conditions": "672 h, time 4 weeks, read-out: TGI"}, "VCaP [25]": {"system": "VCaP", "experiment": "Antitumor activity against human VCaP cells xenografted in SCID mouse assessed as tumor regression at 3 mg/kg, po administered 3 times a week for 4 weeks", "assay_type": "functional"}, "[26]": {"experiment": "Toxicity in SCID mouse xenografted with human 22Rv1 cells assessed as loss of body weight at 0.3 to 3 mg/kg, po administered upto 3 weeks", "assay_type": "organism-based, CWR22R", "conditions": "in vivo, 504 h, dose 0.3-3 mg/kg"}, "[27]": {"experiment": "Toxicity in female BALB/c mouse assessed as effect on body weight loss at 3 to 10 mg/kg, po administered twice a week for 5 to 6 weeks", "assay_type": "organism-based", "conditions": "in vivo, dose lower 3 mg/kg, time lower 5 weeks, dose upper 10 mg/kg, time upper 6 weeks"}, "[28]": {"experiment": "Toxicity in female BALB/c mouse assessed as body weight loss at 30 mg/kg, po administered twice a week for 5 to 6 weeks", "assay_type": "organism-based", "conditions": "in vivo, time 5-6 weeks"}, "[29]": {"experiment": "Drug distribution in Sprague-Dawley rat plasma at 10 mg/kg, po measured at 1 hr by LC-MS/MS analysis", "assay_type": "ADME, organism-based"}, "[30]": {"experiment": "Drug distribution in Sprague-Dawley rat kidney at 3 mg/kg, po measured at 6 hrs by LC-MS/MS analysis", "assay_type": "ADME, organism-based", "conditions": "read-out: Ct"}, "[31]": {"experiment": "Drug distribution in Sprague-Dawley rat kidney at 3 mg/kg, po measured at 24 hrs by LC-MS/MS analysis", "assay_type": "ADME, organism-based", "conditions": "read-out: Ct"}, "[32]": {"experiment": "Drug distribution in Sprague-Dawley rat kidney at 10 mg/kg, po measured at 1 hr by LC-MS/MS analysis", "assay_type": "ADME, organism-based", "conditions": "read-out: Ct"}, "[33]": {"experiment": "Drug distribution in Sprague-Dawley rat liver at 10 mg/kg, po measured at 6 hrs by LC-MS/MS analysis", "assay_type": "ADME, organism-based", "conditions": "read-out: Ct"}, "[34]": {"experiment": "Drug distribution in Sprague-Dawley rat heart at 10 mg/kg, po measured at 1 hr by LC-MS/MS analysis", "assay_type": "ADME, organism-based", "conditions": "read-out: Ct"}, "[35]": {"experiment": "Toxicity in immune-competent Sprague-Dawley rat assessed as change in red blood cells count at 1 to 10 mg/kg, po administered twice a week for 5 weeks", "assay_type": "organism-based", "conditions": "in vivo, 840 h, dose 1-10 mg/kg"}, "[36]": {"experiment": "Toxicity in immune-competent Sprague-Dawley rat assessed as change in lymphocyte at 1 to 10 mg/kg, po administered twice a week for 5 weeks", "assay_type": "organism-based", "conditions": "in vivo, 840 h, dose 1-10 mg/kg"}, "[37]": {"experiment": "Toxicity in immune-competent Sprague-Dawley rat assessed as change in calcium level at 1 to 10 mg/kg, po administered twice a week for 5 weeks", "assay_type": "organism-based", "conditions": "in vivo, 840 h, dose 1-10 mg/kg"}, "[38]": {"experiment": "Toxicity in immune-competent Sprague-Dawley rat assessed as change in total bilirubin level at 1 to 10 mg/kg, po administered twice a week for 5 weeks", "assay_type": "organism-based", "conditions": "in vivo, 840 h, dose 1-10 mg/kg"}, "[39]": {"experiment": "Toxicity in immune-competent Sprague-Dawley rat assessed as change in albumin level at 1 to 10 mg/kg, po administered twice a week for 5 weeks", "assay_type": "organism-based", "conditions": "in vivo, 840 h, dose 1-10 mg/kg"}},
  "note": "Activity calls are given as the source filed them. The calls are words filed in the database; no cut-off is given here.",
  "data": [
    {"smiles": "CC(=O)N1CCc2c(c(N3CCCc4cc(-c5cnn(C)c5)c(C(F)F)cc43)nn2[C@H]2CC[C@H](CN3Cc4cc5c(cc4C3)C(=O)N(C3CCC(=O)NC3=O)C5=O)CC2)C1", "note": "(some centres undefined)", "values": [
      {"measurement": "IC50", "setting": "CWR22R [1]", "value": 3.7, "unit": "nM"},
      {"measurement": "IC50", "setting": "VCaP [2]", "value": 4.6, "unit": "nM"},
      {"measurement": "remaining at 7 h", "setting": "[3]", "value": "< 10", "unit": "%"},
      {"measurement": "half-life", "setting": "[4]", "value": 1.9, "unit": "h"},
      {"measurement": "Cmax", "setting": "[5]", "value": 725, "unit": "ng/mL"},
      {"measurement": "AUC at 24 h", "setting": "[6]", "value": 937, "unit": "ng·h/mL"},
      {"measurement": "bioavailability", "setting": "[7]", "value": 67, "unit": "%"},
      {"measurement": "fraction unbound", "setting": "[8]", "value": 0.009},
      {"measurement": "concentration at 6 h", "setting": "[9]", "value": 12.7, "unit": "ng/mL"},
      {"measurement": "concentration at 1 h", "setting": "[10]", "value": 747, "unit": "ng/mL"},
      {"measurement": "concentration at 1 h", "setting": "[11]", "value": 155, "unit": "ng/g"},
      {"measurement": "concentration at 24 h", "setting": "[12]", "value": 12, "unit": "ng/mL"},
      {"measurement": "concentration at 24 h", "setting": "[13]", "value": 5.6, "unit": "ng/mL"},
      {"measurement": "concentration at 1 h", "setting": "[14]", "value": 1640, "unit": "ng/mL"},
      {"measurement": "concentration at 6 h", "setting": "[15]", "value": 1750, "unit": "ng/mL"},
      {"measurement": "concentration at 1 h", "setting": "[16]", "value": 91, "unit": "ng/mL"},
      {"measurement": "concentration at 6 h", "setting": "[17]", "value": 27.4, "unit": "ng/mL"},
      {"measurement": "concentration at 1 h", "setting": "[18]", "value": 146, "unit": "ng/mL"},
      {"measurement": "concentration at 6 h", "setting": "[19]", "value": 738, "unit": "ng/mL"},
      {"measurement": "concentration at 1 h", "setting": "[20]", "value": 30.8, "unit": "ng/g"},
      {"measurement": "Activity", "setting": "CWR22R [21]", "value": "Active"},
      {"measurement": "Activity", "setting": "CWR22R [22]", "value": "Active"},
      {"measurement": "Activity", "setting": "CWR22R [23]", "value": "Active"},
      {"measurement": "inhibition in vivo at 1 mg/kg", "setting": "VCaP [24]", "value": 81, "unit": "%"},
      {"measurement": "Activity", "setting": "VCaP [25]", "value": 67, "unit": "%"},
      {"measurement": "Activity", "setting": "[26]", "value": "Non-Toxic"},
      {"measurement": "Activity", "setting": "[27]", "value": "Non-Toxic"},
      {"measurement": "Activity", "setting": "[28]", "value": "< 5", "unit": "%"},
      {"measurement": "concentration at 1 h", "setting": "[29]", "value": 321, "unit": "ng/mL"},
      {"measurement": "concentration at 6 h", "setting": "[30]", "value": 59.2, "unit": "ng/g"},
      {"measurement": "concentration at 24 h", "setting": "[31]", "value": 2.1, "unit": "ng/g"},
      {"measurement": "concentration at 1 h", "setting": "[32]", "value": 1170, "unit": "ng/g"},
      {"measurement": "concentration at 6 h", "setting": "[33]", "value": 541, "unit": "ng/g"},
      {"measurement": "concentration at 1 h", "setting": "[34]", "value": 638, "unit": "ng/g"},
      {"measurement": "Activity", "setting": "[35]", "value": "Non-Toxic"},
      {"measurement": "Activity", "setting": "[36]", "value": "Non-Toxic"},
      {"measurement": "Activity", "setting": "[37]", "value": "Non-Toxic"},
      {"measurement": "Activity", "setting": "[38]", "value": "Non-Toxic"},
      {"measurement": "Activity", "setting": "[39]", "value": "Non-Toxic"}
    ]}
  ]
}
